Where “and” joins values, the source holds several entries; their conditions need not be identical. Identical values can stand only once.
Key:
[1] = DSC
[2] = molar heat capacity at constant pressure; details: 101.33 kPa, Crystal 3, DSC
[3] = Molar enthalpy of transition or fusion; details: Crystal 3; DSC

NC(N)=C([N+](=O)[O-])[N+](=O)[O-] [1,1-diamino-2,2-dinitroethene]
Details | Triple point temperature [K] | molar heat capacity at constant pressure [J/K/mol]
[1], Crystal 2 | 439.2 | –
[1], Crystal 3 | 393.7 | –
[2], 345 K | – | 191.17
[2], 350 K | – | 193.24
[2], 355 K | – | 195.17
[2], 360 K | – | 197.24
[2], 365 K | – | 199.16
[2], 370 K | – | 201.24
[2], 375 K | – | 203.16
[2], 380 K | – | 205.09
[2], 385 K | – | 207.16

Details | Molar enthalpy of transition or fusion
[3] | 0.623 kcal/mol and 0.676 kcal/mol

Source: the NIST ThermoML archive (doi:10.1021/acs.jced.6b00483)
